# Where two headings read alike, the source gives them in different places.
# How the values were obtained:
# [1] = Serum biomarkers for toxicity evaluation in glioblastoma-bearing mice; assay type: in vivo, Swiss nude mice; conditions: free drug in solution
# Protocol: After reaching the endpoint, animals were euthanized. Whole blood samples were collected from mice immediately to heparinized tubes. The supernatant (serum) of blood obtained after centrifugation (2880×g for 10 min at 4° C.) was used to determine the levels of physiological biomarkers such as aspartate aminotransferase (AST), alanine aminotransferase (ALT), alkaline phosphatase (ALP), gamma glutamyl transpeptidase (GGT), creatinine kinase (CK), and urea (U) to investigate the effects of drug, nanoparticles and photothermal treatment.
# [2] = Pharmacokinetics and biodistribution in mice after i.p. administration; assay type: in vivo, Swiss nude mice; parameters: AUCinf: concentration or dose not given beside the values
# Protocol: Adult male and female Swiss Nu/Nu and Swiss Nu/+ mice, aged between 10-14 weeks and weighting 22-30 g, were purchased from Charles River Laboratories (Lyon, France) and maintained in local animal facilities under controlled conditions (12 hours light/dark cycle, at 20±2° C. and 50±5% of relative humidity), with free access to standard diet and water. All animal experiments were conducted in agreement with the international regulations of the European Union.
# A solution containing CXB in PEG 400: NaCl 0.9% (pH=7.4) (2:1, V/V) was used as control. Thereafter, mice were sacrificed by decapitation at predetermined post-dosing time points. Blood samples were collected to heparinised tubes and centrifuged at 2880 g for 10 min at 4° C. Plasma supernatant was collected and frozen at −80° C. until analysis. […] Brain and liver tissues were homogenized with an H2O-acetonitrile (1:1, V/V) solution (4 mL per g of tissue) using a Thomas® Teflon pestle tissue homogenizer and centrifuged at 4 150 g for 15 min at 4° C. In parallel, spleen tissues were homogenized with 1 ml of the same solution using a high-speed stirrer (Ultra-Turrax X1020, Ystral GmbH, Dottingen, Germany) and then, centrifuged at 12 045 g for 5 min at 4° C. All supernatants were collected and stored at −80° C. until analysis using a previously validated HPLC method. […]
# [3] = system: orthotopic U87 human GB tumor; assay: In vivo antitumor efficacy in orthotopic U87 glioblastoma model; parameters: species or system human tumor in Swiss nude mice
# Protocol: Regarding orthotopic U87 human GB tumor model, before the surgical procedure, fourteen nude mice were weighted, given buprenorphine (0.1 mg/Kg) intraperitoneally and placed on a stereotactic frame. To maintain anesthesia and sedation, the mice were anesthetized for 30 min with 4% isoflurane gas, mixed with medical oxygen at a rate of 1 L/min. Vital signs such as respiratory frequency and body temperature were monitored continuously. After the identification of the injection site, at the Cartesian coordinates (x, y, z)=(2.1, 0.5, −3) in relation to bregma, approximately 36 000 U87 cells were injected in the striatum of the frontal cortex of the right hemisphere of the brain, using a Hamilton syringe. In every mouse, the presence, location and volume of the tumors were assessed by Magnetic Resonance Imaging (MRI) weekly. MRI was performed using a 9.4T Bruker BioSpec 94/20USR system (Bruker, Germany) after anesthetizing mice with isoflurane (1 L/min, induction: 4% isoflurane; maintenance: 2% isoflurane). Vital signs, in particular, respiratory frequency and body temperature, were monitored continuously. For structural analysis, T2-weighted images were acquired in sagittal, coronal and axial planes, using a rapid acquisition with relaxation enhancement sequence (T2 Turbo RARE). Tumor images were manually segmented in the 3D Slicer software for 3D reconstruction, in order to calculate tumor volume.
# Similarly, to the safety evaluation test, all animals were closely observed during the immediate post injection period. Mice physical appearance (body weight and coat condition), body function (food intake), presence of loose stools, diarrhea or blood in diarrhea and behavior (handling, aggression, abnormal gait and posture and reluctance to move) were also monitored throughout the study. Pre-determined human endpoints for animal euthanasia were also established, specifically, a weight loss greater than 20% of initial body weight, a temperature drop (<35° C.), and a tumor size higher than 50 mm^3. […]
# The tumor growth delayed (TGD), which concerns the evaluation of tumor treatment modalities, was calculated according to
# where, Dtreatment and Dcontrol correspond to the average doubling times of the treated and control tumors, respectively.
# The tumor growth inhibition (TGI), which measures the tumor size between treated and control groups at specific time points was calculated according to
# [formula] • where ΔT (=T−T0) represents the change in tumor size (volume) for the treated animals, while ΔC(=C−C0) represents the change in tumor size (volume) for the control animals. By comparing these values, the degree of tumor growth inhibition can be determined.
# [4] = system: U87 cells; assay: Resazurin cytotoxicity assay in U87 / glioma cells; assay type: cell-based, human; conditions: for IC50: all glioma cells, 24 hours and 72 hours
# Protocol: In vitro toxicity studies were performed as described in Example 4. To assess the potential cytotoxicity of both loaded and unloaded NPs, the resazurin assay was conducted in HBMEC and U87 cells. The sensitivity of GB cells to free CXB and TMZ was assessed following a treatment with a drug solution in the range 7-1700 μM and 5-2500 μM, respectively.
# The cytotoxicity effect of AuNRs^c(RGDfK) and HNPs/HNPs^Tf against U87 cells. Regarding cell viability, the U87 cells were cultured in DMEM/F-12 medium, supplemented with 10% (v/v) FBS, 1% (v/v) penicillin-streptomycin solution and sodium bicarbonate. U87 were maintained at 37° C. in a humidified atmosphere containing CO2 (5%). The resazurin assay was used to determine the cytotoxicity of CXB, AuNRs^c(RGDfK) and HNPs. Briefly, 2000 cells per well were seeded in a 96 well plate and incubated for 24 hours or 72 hours after the medium was replaced with increasing concentrations of CXB or AuNRs^c(RGDfK) or HNPs/HNPS^Tf. Subsequently, the medium was removed, and the cell viability determined. For this purpose, 100 μl of 10% (w/v) resazurin solution in DMEM/F 12 was added to the cells and incubated for approximately 2 hours, at 37° C. The enzymatic reduction of resazurin to resorufin was analyzed by UV/Vis spectrophotometry at 570 nm and 600 nm. Cell viability was assessed as described above.
# [5] = Safety and tolerability in mice; parameters: species or system Swiss nude mice; conditions: mouse, in vivo
# Protocol: The dose used for temozolomide was 30 mg/kg (i.p administration) and 50 mg/kg (oral administration), as the upper threshold tolerated by animals. The treatment started 21 days after U87 cell implantation.
# To understand the drug effect: At 21 days post-tumor cell injection, mice were randomly divided into six groups and treated intraperitoneally for two cycles of five consecutive days. […] Similarly, to the safety evaluation test, all animals were closely observed during the immediate post injection period. Mice physical appearance (body weight and coat condition), body function (food intake), presence of loose stools, diarrhea or blood in diarrhea and behavior (handling, aggression, abnormal gait and posture and reluctance to move) were also monitored throughout the study. Pre-determined human endpoints for animal euthanasia were also established, specifically, a weight loss greater than 20% of initial body weight, a temperature drop (<35° C.), and a tumor size higher than 50 mm^3.
# [6] = system: glioblastoma; conditions: cited from earlier work
# [7] = celecoxib, i.p. mice, plasma, 20 mg/kg
# [8] = mouse, ip, 20 mg/kg, celecoxib, i.p. mice, brain
# [9] = mouse, ip, 20 mg/kg, celecoxib, i.p. mice, kidney
# [10] = mouse, ip, 20 mg/kg, celecoxib, i.p. mice, liver
# [11] = mouse, ip, 20 mg/kg, celecoxib, i.p. mice, plasma
# [12] = mouse, ip, 20 mg/kg, celecoxib, i.p. mice, spleen
# [13] = i.p., no irradiation (TMZ 30 mg/kg, CXB 5 mg/kg, nanoparticles 20 mg/kg)
# [14] = i.p., no irradiation (TMZ 30 mg/kg, CXB 5 mg/kg, nanoparticles 20 mg/kg), listed as temozolomide
# [15] = oral, 50 mg/kg, listed as temozolomide
smiles,measurement,setting,value
"Cc1ccc(-c2cc(C(F)(F)F)nn2-c2ccc(S(N)(=O)=O)cc2)cc1 [CXB, celecoxib]",CK increase over saline group,[1],1.17 fold
same,AUC0-last,"[2]; celecoxib, i.p. mice, brain",36.7 µg·h/g
same,AUCextrap,"[2]; celecoxib, i.p. mice, brain",7.08%
same,AUCinf,"[2]; celecoxib, i.p. mice, brain",39.5 µg·h/g
same,AUC0-last,"[2]; celecoxib, i.p. mice, kidney",35.3 µg·h/g
same,AUCextrap,"[2]; celecoxib, i.p. mice, kidney",16.3%
same,AUCinf,"[2]; celecoxib, i.p. mice, kidney",42.2 µg·h/g
same,AUC0-last,"[2]; celecoxib, i.p. mice, liver",27.7 µg·h/g
same,AUCextrap,"[2]; celecoxib, i.p. mice, liver",30.4%
same,AUCinf,"[2]; celecoxib, i.p. mice, liver",39.8 µg·h/g
same,AUCextrap,"[2]; celecoxib, i.p. mice, plasma",13.0%
same,AUC0-last,[2]; [7],28100 ng·h/mL
same,Cmax,[2]; [7],9100 ng/mL
same,AUC0-last,"[2]; celecoxib, i.p. mice, spleen",73.2 µg·h/g
same,AUCextrap,"[2]; celecoxib, i.p. mice, spleen",42.0%
same,AUCinf,"[2]; celecoxib, i.p. mice, spleen",126.2 µg·h/g
same,Cmax,"[2]; mouse, brain, ip, 20 mg/kg, celecoxib, i.p. mice, brain, read-out: Cmax",20600 ng/g
same,AUC(0-t),"[2]; mouse, ip, 20 mg/kg, plasma",28100 ng·h/mL
same,MRT,[2]; [8],2 h
same,Tmax,[2]; [8],1 h
same,half-life,[2]; [8],1.4 h
same,MRT,[2]; [9],3.05 h
same,Tmax,[2]; [9],2 h
same,half-life,[2]; [9],2 h
same,MRT,[2]; [10],4.6 h
same,Tmax,[2]; [10],0.5 h
same,half-life,[2]; [10],2.8 h
same,AUC(0-inf),[2]; [11],32300 ng·h/mL
same,MRT,[2]; [11],2.9 h
same,Tmax,[2]; [11],1 h
same,half-life,[2]; [11],1.9 h
same,MRT,[2]; [12],6.47 h
same,Tmax,[2]; [12],1 h
same,half-life,[2]; [12],4.07 h
same,Cmax,"[2]; mouse, kidney, ip, 20 mg/kg, celecoxib, i.p. mice, kidney, read-out: Cmax",15600 ng/g
same,Cmax,"[2]; mouse, liver, ip, 20 mg/kg, celecoxib, i.p. mice, liver, read-out: Cmax",10600 ng/g
same,Cmax,"[2]; mouse, plasma, ip, 20 mg/kg, celecoxib, i.p. mice, plasma, read-out: Cmax",9090 ng/mL
same,Cmax,"[2]; mouse, spleen, ip, 20 mg/kg, celecoxib, i.p. mice, spleen, read-out: Cmax",22400 ng/g
same,mean survival time (MST),"[3]; i.p., no irradiation (CXB 5 mg/kg, nanoparticles 20 mg/kg)",48 days
same,% Tumor Growth Delay,[3]; [13],15 ± 5%
same,% Tumor Growth Inhibition,[3]; [13],13 ± 6%
same,Median survival,[3]; [13],48 days
same,Survivals at 56 days,[3]; [13],1/6
same,Survivals at 91 days,[3]; [13],0/6
same,inhibition of growth of GB cells in vivo,"[3]; i.p., in words",the effect was not significant
same,effect on cellular proliferation,"[4]; free CXB, after 24 hours and 72 hours",able to impair cellular proliferation
same,IC50,[4]; free CXB,< 400 µM
same,MTD,"[5]; ip, celecoxib in solution, i.p., read-out: dose above which toxicity was exhibited",> 5 mg/kg
"Cn1nnc2c(C(N)=O)ncn2c1=O [TMZ, temozolomide]",median OS,"[6]; combination with radiotherapy vs. 12.1 months radiotherapy alone, P<0.001",14.6 months
same,median survival time in patients,"[6]; comparative studies of several chemotherapeutic agents, in words",highest median survival time in patients
same,CK increase over saline group,[1],1.32 fold
same,animals that survived and prevented tumor recurrence,"[3]; i.p. 30 mg/kg, out of 6 animals, 91 days",4
same,% Tumor Growth Delay,[3]; [13],75 ± 21%
same,% Tumor Growth Inhibition,[3]; [13],66 ± 33%
same,Median survival,[3]; [13],91 days
same,Survivals at 56 days,[3]; [13],6/6
same,Survivals at 91 days,[3]; [13],4/6
same,% Tumor Growth Delay,[3]; [14],75%
same,% Tumor Growth Inhibition,[3]; [14],66%
same,% Tumor Growth Delay,"[3]; oral, 50 mg/kg",54 ± 11%
same,% Tumor Growth Inhibition,"[3]; oral, 50 mg/kg",42 ± 14%
same,Median survival,"[3]; oral, 50 mg/kg",70 days
same,Survivals at 56 days,"[3]; oral, 50 mg/kg",1/6
same,Survivals at 91 days,"[3]; oral, 50 mg/kg",1/6
same,animals that survived without tumor recurrence,"[3]; oral, 50 mg/kg",only one animal survived
same,mean survival time (MST),"[3]; oral, 50 mg/kg",70 days
same,% Tumor Growth Delay,[3]; [15],54%
same,% Tumor Growth Inhibition,[3]; [15],42%
same,IC50,"[4]; Homo sapiens, U-87 MG, free TMZ",800 µM
same,MTD,"[5]; ip, i.p. administration, read-out: upper threshold dose tolerated by animals",30 mg/kg
same,MTD,"[5]; oral administration, read-out: upper threshold dose tolerated by animals",50 mg/kg

# Source: patent US20260315596A1, “HYBRID NANOPARTICLES AS MULTIFUNCTIONAL PLATFORM FOR BRAIN TUMOR THERAPY” (UNIVERSIDADE DE COIMBRA, priority 2022, published 2026)
